# pIC50: −log10 of the molar value. Where “and” joins values, the source holds several entries; their conditions need not be identical. Identical values can stand only once. Entries after “also recorded” stand apart in the source; their conditions may differ.
# Tests used:
# Assay type in all cases: cell-based, human
# [1] = system: patient-derived tumor organoids (PDTOs), colorectal cancer; assay: Endoxifen screen in PDTOs: colorectal cancer; set-up: key to Personalization Category: Personalization categories range from High, Good, Moderate, Low, to None; Personalization categories range from High, Good, Moderate, Low, to None; Personalization categories range from High, Good, Moderate, Low, to None; Personalization categories range from High, Good, Moderate, Low, to None; Personalization categories range from High, Good, Moderate, Low, to None; key to Sensitivity Category: Sensitivity categories range from High, Good, Moderate, Low, to None; Sensitivity categories range from High, Good, Moderate, Low, to None; Sensitivity categories range from High, Good, Moderate, Low, to None; Sensitivity categories range from High, Good, Moderate, Low, to None; Sensitivity categories range from High, Good, Moderate, Low, to None; AUC: unit not given beside the values; conditions: each line one patient sample
# Description: (§1) This example describes screening endoxifen in patient-derived tumor organoids. Endoxifen was tested as a single agent on tumor organoids derived from patients diagnosed with various cancer types using a personalized cancer treatment screening assay (PARIS© Test, SEngine Precision Medicine). The screen utilized patient-derived tumor organoids (PDTOs) along with high-throughput drug screening and machine learning-guided data analysis to quantify the efficacy of endoxifen against samples derived from individual patients diagnosed with various cancer types. PDTOs are self-organizing, three-dimensional organoid structures that recapitulate structural, functional, and genomic aspects of in vivo organs. The PDTOs were grown in culture from patient tumor biopsy samples.
# (§2) Fresh patient biopsy samples received following surgery were cleaned and purified. Immune cells (e.g., lymphocytes, blood cells), cancer-associated fibroblasts, and other non-tumor cells were removed to establish pure PDTOs for endoxifen testing. The tumor organoids were grown and expanded by supplying organ- and patient-specific growth factors and nutrients. The PDTOs were treated with increasing concentrations of endoxifen ranging from about 30 nM to about 10 μM, and the drug response was measured using a luminescence readout. A lower luminescence was indicative of a stronger drug response.
# (§3) The results were analyzed using a “SEngine Precision Medicine” (SPM) scoring system to assess the sensitivity and personalization of each tumor organoid to endoxifen. The SPM score correlates with clinical outcomes, such that a higher SPM score for a specific PDTO-drug combination predicts a more favorable clinical outcome following treatment of the corresponding patient with the tested drug.
# (§4) This example describes testing endoxifen efficacy against 17 distinct cancer types in patient-derived tumor organoids (PDTOs). Screening of PDTOs was performed as described in EXAMPLE 1. For each PDTO sample, the drug response was measured using a luminescent readout over a range of endoxifen concentrations. The drug response was evaluated based on the area under the fitted dose response curve (AUC) and the SPM scoring system. AUC values were normalized for each PDTO. Briefly, data points at each drug concentration were first normalized to a negative control, then a dose response drug curve was approximated using a four-parameter logistic model fitted to the normalized data points. The area under the curve was calculated from the normalized curve. Normalization allowed for comparison of AUC values between patient samples. The SPM scores were based on machine learning models that incorporate values for how well the drug kill patient cells (sensitivity metric), the relative drug responses of a patient to all other patients in a sample database (personalization metric), and knowledge of clinical outcomes for patients that had been evaluated with the personalized cancer screening assay (PARIS® Test, SEngine Precision Medicine).
# (§5) The SPM scoring system evaluated whether a PDTO was unresponsive or responsive to endoxifen and the degree of drug response for PDTOs that were responsive to endoxifen. The SPM scoring system generated metrics an SPM score, predictive of clinical outcome, overall drug response (response category), drug sensitivity (sensitivity category), and drug personalization (personalization category). SPM scores ranged from 1-15, corresponding to the following drug response categories: no response (SPM 1-8), low response (SPM 9), moderate response (SPM 10-11), good response (SPM 12-13), and exceptional response (SPM 14-15). […] Moderate to good drug responses (SPM 10-13) may indicate that a drug has clinical relevance, possibly in combination with other drugs. The sensitivity category was determined from the sensitivity metric and is a measure of overall cell death of a patient's cells in response to endoxifen at six concentrations. […]
# [2] = system: patient-derived tumor organoids (PDTOs), neuroblastoma; assay: Endoxifen screen in PDTOs: neuroblastoma; set-up: key to Personalization Category: Personalization categories range from High, Good, Moderate, Low, to None; Personalization categories range from High, Good, Moderate, Low, to None; Personalization categories range from High, Good, Moderate, Low, to None; Personalization categories range from High, Good, Moderate, Low, to None; Personalization categories range from High, Good, Moderate, Low, to None; key to Sensitivity Category: Sensitivity categories range from High, Good, Moderate, Low, to None; Sensitivity categories range from High, Good, Moderate, Low, to None; Sensitivity categories range from High, Good, Moderate, Low, to None; Sensitivity categories range from High, Good, Moderate, Low, to None; Sensitivity categories range from High, Good, Moderate, Low, to None; AUC: unit not given beside the values; conditions: each line one patient sample; for pIC50: four-parameter logistic fit
# Description: as §1, §2, §3, §4, §5
# [3] = system: patient-derived tumor organoids (PDTOs), breast cancer; assay: Endoxifen screen in patient-derived tumor organoids (PARIS Test): breast cancer; set-up: key to Personalization Category: Personalization categories range from High, Good, Moderate, Low, to None; Personalization categories range from High, Good, Moderate, Low, to None; Personalization categories range from High, Good, Moderate, Low, to None; Personalization categories range from High, Good, Moderate, Low, to None; Personalization categories range from High, Good, Moderate, Low, to None; key to Sensitivity Category: Sensitivity categories range from High, Good, Moderate, Low, to None; Sensitivity categories range from High, Good, Moderate, Low, to None; Sensitivity categories range from High, Good, Moderate, Low, to None; Sensitivity categories range from High, Good, Moderate, Low, to None; Sensitivity categories range from High, Good, Moderate, Low, to None; conditions: each line one patient sample
# Description: as §1, §2, §3, §4
# The SPM scoring system evaluated whether a PDTO was unresponsive or responsive to endoxifen and the degree of drug response for PDTOs that were responsive to endoxifen. […] The sensitivity category was determined from the sensitivity metric and is a measure of overall cell death of a patient's cells in response to endoxifen at six concentrations. […]
# [4] = normalized area under fitted dose response curve
smiles,measurement,setting,value
"CC/C(=C(\c1ccc(O)cc1)c1ccc(OCCNC)cc1)c1ccccc1 [Endoxifen, 4-hydroxy-N-desmethyltamoxifen]",Personalization Category,[1],None and Low and Good and Moderate
same,Response Category,[1],None (no response (SPM 1-8)); also recorded: Low (low response (SPM 9)); also recorded: Moderate (moderate response (SPM 10-11))
same,Sensitivity Category,[1],None and Low
same,pIC50,[1]; four-parameter logistic fit,5.15 and 5.03 and 5.14 and 5.25 and 5.00 and 5.33 and 5.44 and 5.05 and 5.17 and 5.02 and 5.04
same,AUC,[1]; [4],0.9517 and 0.9919 and 1.0338 and 0.9902 and 1.0377 and 0.9305 and 0.8841 and 0.8215 and 0.9346 and 0.8357 and 0.8866 and 0.9755 and 0.9804 and 0.9752 and 1.0467
same,SPM Score,[1]; score range 1-15,1 (9×) and 3 and 5 and 9 (2×) and 11 and 10
same,pIC50,[2]; Homo sapiens,5.24
same,Personalization Category,[2],Low and Moderate and None
same,Response Category,[2],Low (low response (SPM 9)); also recorded: Moderate (moderate response (SPM 10-11)); also recorded: None (no response (SPM 1-8))
same,Sensitivity Category,[2],Low and None
same,pIC50,[2],5.23 and 5.14
same,AUC,[2]; [4],0.8848 and 0.8184 and 0.9511
same,SPM Score,[2]; score range 1-15,9 and 10 and 1
same,Response Category,[3],Moderate (moderate response (SPM 10-11)); also recorded: None (no response (SPM 1-8)); also recorded: Low (low response (SPM 9)); also recorded: Good (good response (SPM 12-13)); also recorded: Exceptional (exceptional response (SPM 14-15))
same,AUC,[3]; [4],0.8248 and 0.9311 and 0.8639 and 0.6798 and 0.8079 and 0.9835 and 0.8609 and 0.8997 and 0.8847 and 0.9811 and 0.9320 and 0.9911 and 0.9378 and 0.4774 and 0.5912
same,Sensitivity Category,[3]; overall cell death at six concentrations,Low and None and Moderate and Good
same,Personalization Category,[3]; response relative to other PDTOs,Moderate and None and Low and High and Good
same,SPM Score,[3]; score range 1-15,10 and 1 (6×) and 9 (3×) and 13 (2×) and 11 and 4 and 14
